Test results taken from patent US20100298141A1, “SUBSTITUTED PYRIDINE N-OXIDE HERBICIDES” (E. I. DU PONT DE NEMOURS AND COMPANY, priority 2007, published 2010).

Columns and labels:
Conditions in all cases: scale 0 to 100
annual bluegrass = assay: Test D preemergence test; assay type: in vivo, Poa annua
From the text: (§1) Seeds of plant species selected from annual bluegrass (Poa annua), blackgrass (Alopecurus myosuroides), downy bromegrass (Bromus tectorum), field violet (Viola arvensis), green foxtail (Setaria viridis), Italian ryegrass (Lolium multiflorum), littleseed canarygrass (Phalaris minor), spring wheat (Triticum aestivum), wild oat (Avena fatua), […]), winter barley (Hordeum vulgare), and winter wheat (Triticum aestivum) were planted and treated preemergence with test chemicals formulated in a non-phytotoxic solvent mixture which included a surfactant. […] A dash (-) response means no test result.

Italian ryegrass = assay: Test D preemergence test; assay type: in vivo, Lolium multiflorum
From the text: as §1

wild oat = assay: Test D preemergence test; assay type: in vivo, Avena fatua
From the text: as §1

common chickweed = assay: Test F preemergence test; assay type: in vivo, Stellaria media
How it was run: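 Compounds in a non-phytotoxic solvent formulation with surfactant were applied before emergence after sowing, or, for sugarcane, also postemergence. Evaluation was visual, against controls, after 14 to 21 greenhouse days.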

Russian thistle = assay: Test F preemergence test; assay type: in vivo, Salsola kali
From the text: Seeds of plant species selected from bermudagrass (Cynodon dactylon), Surinam grass (Brachiaria decumbens), large crabgrass (Digitaria sanguinalis), green foxtail (Setaria viridis), goosegrass (Eleusine indica), johnsongrass (Sorghum halepense), kochia (Kochia scoparia), pitted morningglory (Ipomoea lacunosa), purple nutsedge (Cyperus rotundus), common ragweed (Ambrosia elation), mustard (Brassica nigra), guineagrass (Panicum maximum), […] (Paspalum dilatatum), barnyardgrass (Echinochloa crus-galli), southern sandbur (Cenchrus echinatus), common sowthistle (Sonchus oleraceous), prickly […] spinosa), Italian ryegrass (Lolium multiflorum), common purslane (Portulaca oleracea), broadleaf signalgrass (Brachiaria platyphylla), common groundsel (Senecio vulgaris), common chickweed (Stellaria media), Virginia dayflower (Commelina virginica), annual bluegrass (Poa annua), naked crabgrass (Digitaria nuda), […] cochinchinensis), quackgrass (Elytrigia repens), Canada horseweed (Conyza canadensis), field bindweed (Convolvulus arvensis), […] (Bidens bipinnata), common mallow (Malva sylvestris), Russian thistle (Salsola kali), and sugarcane (Saccharum officinarum) were planted and treated preemergence with test chemicals formulated in a non-phytotoxic solvent mixture which included a surfactant. At a different time, sugarcane was treated with postemergence applications of some of the test chemicals formulated in the same manner. Plants were approximately 3- to 4-leaf stage for the postemergence treatments. Treated plants and controls were maintained in a greenhouse for 14 to 21 days, after which time all species were compared to controls and visually evaluated. […] A dash (-) response means no test result.

barnyardgrass = assay: Test G preemergence test; assay type: in vivo, Echinochloa crus-galli
corn = assay: Test G preemergence test; assay type: in vivo, Zea mays
cotton = assay: Test G preemergence test; assay type: in vivo, Gossypium hirsutum
field sandbur = assay: Test G preemergence test; assay type: in vivo, Cenchrus incertus
giant foxtail = assay: Test G preemergence test; assay type: in vivo, Setaria faberii
millet = assay: Test G preemergence test; assay type: in vivo, Panicum miliaceum
soybean = assay: Test G preemergence test; assay type: in vivo, Glycine max

Cn1nc(C(F)(F)F)c(CS(=O)(=O)c2cccc[n+]2[O-])c1OC(F)F [Compound 4]
50: Plant response rating, Bluegrass (annual bluegrass; 31 g ai/ha) | Plant response rating, Bluegrass (annual bluegrass; 62 g ai/ha) | Plant response rating, Ryegrass, Italian (Italian ryegrass; 250 g ai/ha) | Plant response rating, Foxtail, Giant (giant foxtail; 62 g ai/ha)
20: Plant response rating, Ryegrass, Italian (Italian ryegrass; 31 g ai/ha) | Plant response rating, Ryegrass, Italian (Italian ryegrass; 62 g ai/ha) | Plant response rating, Ryegrass, Italian (Italian ryegrass; 125 g ai/ha) | Plant response rating, Millet (millet; 31 g ai/ha)
100: Plant response rating, Bluegrass (annual bluegrass; 250 g ai/ha) | Chickweed plant response rating (common chickweed; 62 g ai/ha, Preemergence) | Plant response rating, Chickweed (common chickweed; Preemergence, 16 g ai/ha) | Plant response rating, Chickweed (common chickweed; Preemergence, 31 g ai/ha) | Russian Thistle plant response rating (Russian thistle; 62 g ai/ha, Preemergence) | Plant response rating, Russian Thistle (Russian thistle; Preemergence, 31 g ai/ha) | Plant response rating, Barnyardgrass (barnyardgrass; 62 g ai/ha) | Plant response rating, Barnyardgrass (barnyardgrass; 125 g ai/ha) | Plant response rating, Barnyardgrass (barnyardgrass; 250 g ai/ha) | Plant response rating, Sandbur (field sandbur; 250 g ai/ha) | Plant response rating, Foxtail, Giant (giant foxtail; 250 g ai/ha) | Plant response rating, Millet (millet; 250 g ai/ha)
30: Plant response rating, Oat, Wild (wild oat; 62 g ai/ha) | Plant response rating, Oat, Wild (wild oat; 125 g ai/ha) | Plant response rating, Sandbur (field sandbur; 62 g ai/ha)
80: Plant response rating, Bluegrass (annual bluegrass; 125 g ai/ha)
5: Plant response rating, Corn (corn; 125 g ai/ha) | Plant response rating, Cotton (cotton; 31 g ai/ha)
35: Plant response rating, Oat, Wild (wild oat; 250 g ai/ha)
25: Plant response rating, Oat, Wild (wild oat; 31 g ai/ha) | Plant response rating, Cotton (cotton; 62 g ai/ha)
0: Plant response rating, Russian Thistle (Russian thistle; 8 g ai/ha, preemergence) | Plant response rating, Russian Thistle (Russian thistle; Preemergence, 16 g ai/ha) | Plant response rating, Corn (corn; 31 g ai/ha) | Plant response rating, Corn (corn; 62 g ai/ha) | Plant response rating, Corn (corn; 250 g ai/ha) | Plant response rating, Cotton (cotton; 125 g ai/ha) | Plant response rating, Sandbur (field sandbur; 31 g ai/ha) | Plant response rating, Soybean (soybean; 31 g ai/ha)
60: Plant response rating, Chickweed (common chickweed; 8 g ai/ha, preemergence) | Plant response rating, Sandbur (field sandbur; 125 g ai/ha)
70: Plant response rating, Barnyardgrass (barnyardgrass; 31 g ai/ha)
10: Plant response rating, Cotton (cotton; 250 g ai/ha) | Plant response rating, Soybean (soybean; 62 g ai/ha)
90: Plant response rating, Foxtail, Giant (giant foxtail; 125 g ai/ha)
40: Plant response rating, Foxtail, Giant (giant foxtail; 31 g ai/ha) | Plant response rating, Millet (millet; 62 g ai/ha) | Plant response rating, Millet (millet; 125 g ai/ha)
15: Plant response rating, Soybean (soybean; 125 g ai/ha) | Plant response rating, Soybean (soybean; 250 g ai/ha)

Cn1nc(C(F)(F)F)c(CS(=O)(=O)c2ccc(Cl)c[n+]2[O-])c1OC(F)F [Compound 7]
0: Plant response rating, Bluegrass (annual bluegrass; 31 g ai/ha) | Plant response rating, Bluegrass (annual bluegrass; 62 g ai/ha) | Plant response rating, Ryegrass, Italian (Italian ryegrass; 31 g ai/ha) | Plant response rating, Ryegrass, Italian (Italian ryegrass; 62 g ai/ha) | Plant response rating, Ryegrass, Italian (Italian ryegrass; 125 g ai/ha) | Plant response rating, Oat, Wild (wild oat; 31 g ai/ha) | Plant response rating, Oat, Wild (wild oat; 62 g ai/ha) | Plant response rating, Oat, Wild (wild oat; 125 g ai/ha) | Plant response rating, Oat, Wild (wild oat; 250 g ai/ha) | Plant response rating, Barnyardgrass (barnyardgrass; 31 g ai/ha) | Plant response rating, Corn (corn; 31 g ai/ha) | Plant response rating, Corn (corn; 62 g ai/ha) | Plant response rating, Corn (corn; 125 g ai/ha) | Plant response rating, Corn (corn; 250 g ai/ha) | Plant response rating, Cotton (cotton; 31 g ai/ha) | Plant response rating, Cotton (cotton; 62 g ai/ha) | Plant response rating, Cotton (cotton; 125 g ai/ha) | Plant response rating, Cotton (cotton; 250 g ai/ha) | Plant response rating, Sandbur (field sandbur; 31 g ai/ha) | Plant response rating, Sandbur (field sandbur; 62 g ai/ha) | Plant response rating, Sandbur (field sandbur; 125 g ai/ha) | Plant response rating, Foxtail, Giant (giant foxtail; 31 g ai/ha) | Plant response rating, Millet (millet; 31 g ai/ha) | Plant response rating, Soybean (soybean; 31 g ai/ha) | Plant response rating, Soybean (soybean; 62 g ai/ha) | Plant response rating, Soybean (soybean; 125 g ai/ha) | Plant response rating, Soybean (soybean; 250 g ai/ha)
75: Plant response rating, Sandbur (field sandbur; 250 g ai/ha)
20: Plant response rating, Ryegrass, Italian (Italian ryegrass; 250 g ai/ha) | Plant response rating, Foxtail, Giant (giant foxtail; 62 g ai/ha)
65: Plant response rating, Bluegrass (annual bluegrass; 125 g ai/ha)
55: Plant response rating, Foxtail, Giant (giant foxtail; 250 g ai/ha) | Plant response rating, Millet (millet; 62 g ai/ha)
25: Plant response rating, Foxtail, Giant (giant foxtail; 125 g ai/ha)
15: Plant response rating, Barnyardgrass (barnyardgrass; 62 g ai/ha)
60: Plant response rating, Barnyardgrass (barnyardgrass; 125 g ai/ha)
95: Plant response rating, Bluegrass (annual bluegrass; 250 g ai/ha)
100: Plant response rating, Barnyardgrass (barnyardgrass; 250 g ai/ha) | Plant response rating, Millet (millet; 250 g ai/ha)
85: Plant response rating, Millet (millet; 125 g ai/ha)

Cn1nc(C(F)(F)F)c(C(Cl)S(=O)(=O)c2cccc[n+]2[O-])c1Cl (centres unmarked) [Compound 12]
60: Plant response rating, Bluegrass (annual bluegrass; 31 g ai/ha)
65: Plant response rating, Barnyardgrass (barnyardgrass; 31 g ai/ha)
85: Plant response rating, Sandbur (field sandbur; 31 g ai/ha) | Plant response rating, Sandbur (field sandbur; 62 g ai/ha)
100: Plant response rating, Bluegrass (annual bluegrass; 62 g ai/ha) | Plant response rating, Bluegrass (annual bluegrass; 125 g ai/ha) | Plant response rating, Bluegrass (annual bluegrass; 250 g ai/ha) | Plant response rating, Ryegrass, Italian (Italian ryegrass; 250 g ai/ha) | Plant response rating, Barnyardgrass (barnyardgrass; 125 g ai/ha) | Plant response rating, Barnyardgrass (barnyardgrass; 250 g ai/ha) | Plant response rating, Sandbur (field sandbur; 250 g ai/ha) | Plant response rating, Foxtail, Giant (giant foxtail; 125 g ai/ha) | Plant response rating, Foxtail, Giant (giant foxtail; 250 g ai/ha) | Plant response rating, Millet (millet; 125 g ai/ha) | Plant response rating, Millet (millet; 250 g ai/ha)
50: Plant response rating, Millet (millet; 31 g ai/ha) | Plant response rating, Millet (millet; 62 g ai/ha)
75: Plant response rating, Foxtail, Giant (giant foxtail; 62 g ai/ha)
0: Plant response rating, Ryegrass, Italian (Italian ryegrass; 31 g ai/ha) | Plant response rating, Ryegrass, Italian (Italian ryegrass; 62 g ai/ha) | Plant response rating, Oat, Wild (wild oat; 31 g ai/ha) | Plant response rating, Oat, Wild (wild oat; 62 g ai/ha) | Plant response rating, Oat, Wild (wild oat; 125 g ai/ha) | Plant response rating, Oat, Wild (wild oat; 250 g ai/ha) | Plant response rating, Corn (corn; 31 g ai/ha) | Plant response rating, Corn (corn; 62 g ai/ha) | Plant response rating, Corn (corn; 125 g ai/ha) | Plant response rating, Corn (corn; 250 g ai/ha) | Plant response rating, Cotton (cotton; 31 g ai/ha) | Plant response rating, Cotton (cotton; 62 g ai/ha) | Plant response rating, Cotton (cotton; 125 g ai/ha) | Plant response rating, Cotton (cotton; 250 g ai/ha) | Plant response rating, Soybean (soybean; 31 g ai/ha) | Plant response rating, Soybean (soybean; 62 g ai/ha) | Plant response rating, Soybean (soybean; 125 g ai/ha) | Plant response rating, Soybean (soybean; 250 g ai/ha)
70: Plant response rating, Ryegrass, Italian (Italian ryegrass; 125 g ai/ha)
45: Plant response rating, Foxtail, Giant (giant foxtail; 31 g ai/ha)
95: Plant response rating, Barnyardgrass (barnyardgrass; 62 g ai/ha) | Plant response rating, Sandbur (field sandbur; 125 g ai/ha)
